# Results as given in patent US6355799B1, “Substituted benzene compounds, process for their preparation, and herbicidal and defoliant compositions containing them” (ISK Americas Incorporated, priority 1997, dated 2002).
# Legend:
# Assay type in all cases: in vivo
# [1] = system: barnyardgrass (Echinochloa crus-galli, ECHCG); assay: Pre-emerge test, greenhouse herbicide activity screening; conditions: rating scale 0-100, 14 days after application
# Method in brief: (§1)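 Plants grown in 10 cm pots of sandy loam mix received acetone-dissolved compounds through a moving flat-fan nozzle. Doses ranged from 15 to 1000 g ai/ha. Pre-emerge pots were seeded one day earlier, post-emerge pots 8–21 days earlier. Fourteen days on, each pot was graded 0–100 for damage.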
# [2] = system: large crabgrass (Digitaria sanguinalis, DIGSA); assay: as above; conditions: rating scale 0-100, 14 days after application
# Method in brief: as §1
# [3] = system: johnsongrass (Sorghum halepense, SORHA); assay: as above; conditions: rating scale 0-100, 14 days after application
# Method in brief: as §1
# [4] = system: ivyleaf morningglory (Ipomoea hederacea, IPOHE); assay: as above; conditions: rating scale 0-100, 14 days after application
# Method in brief: as §1
# [5] = system: lambsquarters (Chenopodium album, CHEAL); assay: as above; conditions: rating scale 0-100, 14 days after application
# Method in brief: as §1
# [6] = system: sicklepod (Cassia obtusifolia, CASOB); assay: as above; conditions: rating scale 0-100, 14 days after application
# Method in brief: as §1
# [7] = system: velvetleaf (Abutilon theophrasti, ABUTH); assay: as above; conditions: rating scale 0-100, 14 days after application
# Method in brief: as §1
# [8] = system: green foxtail (Setaria viridis, SETVI); assay: as above; conditions: rating scale 0-100, 14 days after application
# Method in brief: as §1
# [9] = system: upland rice (Oryza sp., var. Tebonnet, RICE); assay: Post-emerge test, crop safety; conditions: rating scale 0-100 (0 no damage, 100 complete death), 14 days after application
# Method in brief: (§2)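 Each test used a mechanized track sprayer delivering 187 l/ha of acetone solution at 15–1000 g ai/ha. Post-emerge foliage at 2–3 leaves was treated with added 0.25% v/v non-ionic surfactant and bottom-watered only. Injury was assessed on day 14, where 100 means total kill.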
# [10] = system: field corn (Zea mays L., var. Dekalb 535, CORN); assay: Post-emerge test, crop safety; conditions: rating scale 0-100 (0 no damage, 100 complete death), 14 days after application
# Method in brief: as §2
# [11] = system: barnyardgrass (Echinochloa crus-galli, ECHCG); assay: Post-emerge test, greenhouse herbicide activity screening; conditions: rating scale 0-100 (0 no damage, 100 complete death), 14 days after application
# Method in brief: as §2
# [12] = system: large crabgrass (Digitaria sanguinalis, DIGSA); assay: as above; conditions: rating scale 0-100 (0 no damage, 100 complete death), 14 days after application
# Method in brief: as §2
# [13] = system: redroot pigweed (Amaranthus retroflexus, AMARE); assay: as above; conditions: rating scale 0-100 (0 no damage, 100 complete death), 14 days after application
# Method in brief: as §2
# [14] = system: johnsongrass (Sorghum halepense, SORHA); assay: as above; conditions: rating scale 0-100 (0 no damage, 100 complete death), 14 days after application
# Method in brief: as §2
# [15] = system: ivyleaf morningglory (Ipomoea hederacea, IPOHE); assay: as above; conditions: rating scale 0-100 (0 no damage, 100 complete death), 14 days after application
# Method in brief: as §2
# [16] = system: lambsquarters (Chenopodium album, CHEAL); assay: as above; conditions: rating scale 0-100 (0 no damage, 100 complete death), 14 days after application
# Method in brief: as §2
# [17] = system: common ragweed (Ambrosia artemisizfolia L., AMBEL); assay: as above; conditions: rating scale 0-100 (0 no damage, 100 complete death), 14 days after application
# Method in brief: as §2
# [18] = system: sicklepod (Cassia obtusifolia, CASOB); assay: as above; conditions: rating scale 0-100 (0 no damage, 100 complete death), 14 days after application
# Method in brief: as §2
# [19] = system: velvetleaf (Abutilon theophrasti, ABUTH); assay: as above; conditions: rating scale 0-100 (0 no damage, 100 complete death), 14 days after application
# Method in brief: as §2
# [20] = system: green foxtail (Setaria viridis, SETVI); assay: as above; conditions: rating scale 0-100 (0 no damage, 100 complete death), 14 days after application
# Method in brief: as §2
# [21] = system: redroot pigweed (Amaranthus retroflexus, AMARE); assay: Pre-emerge test, greenhouse herbicide activity screening; conditions: rating scale 0-100, 14 days after application
# Method in brief: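 Sandy loam pots; pre-emerge: sown 1 d pre-spray, surface-watered after, then bottom-watered. Post-emerge: sown 8–21 d before, 2–3 leaf stage, + 0.25% v/v NIS, bottom-watered. Acetone, 187 l/ha track spray, 15–1000 g ai/ha. 0–100 injury score, day 14.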
# [22] = system: upland rice (Oryza sp., var. Tebonnet, RICE); assay: Pre-emerge test, crop safety; conditions: rating scale 0-100, 14 days after application
# Method in brief: as §1
# [23] = system: field corn (Zea mays L., var. Dekalb 535, CORN); assay: Pre-emerge test, crop safety; conditions: rating scale 0-100, 14 days after application
# Method in brief: as §1
smiles,measurement,setting,value
"CCCOC(=O)C(Cl)Cc1c(OC)c(Cl)cc(F)c1-n1c(=O)cc(C(F)(F)F)n(C)c1=O (single isomer, unassigned) [14-6]","Pre-emerge herbicidal activity, phytotoxicity rating ECHCG",[1]; 63 g ai/ha,0
same,"Pre-emerge herbicidal activity, phytotoxicity rating ECHCG",[1]; 250 g ai/ha,70
same,"Pre-emerge herbicidal activity, phytotoxicity rating DIGSA",[2]; 63 g ai/ha,90
same,"Pre-emerge herbicidal activity, phytotoxicity rating DIGSA",[2]; 250 g ai/ha,100
same,"Pre-emerge herbicidal activity, phytotoxicity rating SORHA",[3]; 63 g ai/ha,0
same,"Pre-emerge herbicidal activity, phytotoxicity rating SORHA",[3]; 250 g ai/ha,30
same,"Pre-emerge herbicidal activity, phytotoxicity rating IPOHE",[4]; 63 g ai/ha,10
same,"Pre-emerge herbicidal activity, phytotoxicity rating IPOHE",[4]; 250 g ai/ha,20
same,"Pre-emerge herbicidal activity, phytotoxicity rating CHEAL",[5]; 63 g ai/ha,20
same,"Pre-emerge herbicidal activity, phytotoxicity rating CHEAL",[5]; 250 g ai/ha,100
same,"Pre-emerge herbicidal activity, phytotoxicity rating CASOB",[6]; 63 g ai/ha,30
same,"Pre-emerge herbicidal activity, phytotoxicity rating CASOB",[6]; 250 g ai/ha,30
same,"Pre-emerge herbicidal activity, phytotoxicity rating ABUTH",[7]; 63 g ai/ha,30
same,"Pre-emerge herbicidal activity, phytotoxicity rating ABUTH",[7]; 250 g ai/ha,100
same,"Pre-emerge herbicidal activity, phytotoxicity rating SETVI",[8]; 63 g ai/ha,10
same,"Pre-emerge herbicidal activity, phytotoxicity rating SETVI",[8]; 250 g ai/ha,100
same,Post-emerge phytotoxicity rating RICE (crop damage),[9]; Rate 63 g ai/ha,0
same,Post-emerge phytotoxicity rating RICE (crop damage),[9]; Rate 250 g ai/ha,35
same,Post-emerge phytotoxicity rating CORN (crop damage),[10]; Rate 63 g ai/ha,50
same,Post-emerge phytotoxicity rating CORN (crop damage),[10]; Rate 250 g ai/ha,60
same,"Post-emerge Herbicidal Activity, phytotoxicity rating ECHCG",[11]; Rate 63 g ai/ha,99
same,"Post-emerge Herbicidal Activity, phytotoxicity rating ECHCG",[11]; Rate 250 g ai/ha,100
same,"Post-emerge Herbicidal Activity, phytotoxicity rating DIGSA",[12]; Rate 63 g ai/ha,50
same,"Post-emerge Herbicidal Activity, phytotoxicity rating DIGSA",[12]; Rate 250 g ai/ha,75
same,"Post-emerge Herbicidal Activity, phytotoxicity rating AMARE",[13]; Rate 63 g ai/ha,95
same,"Post-emerge Herbicidal Activity, phytotoxicity rating AMARE",[13]; Rate 250 g ai/ha,100
same,"Post-emerge Herbicidal Activity, phytotoxicity rating SORHA",[14]; Rate 63 g ai/ha,50
same,"Post-emerge Herbicidal Activity, phytotoxicity rating SORHA",[14]; Rate 250 g ai/ha,65
same,"Post-emerge Herbicidal Activity, phytotoxicity rating IPOHE",[15]; Rate 63 g ai/ha,70
same,"Post-emerge Herbicidal Activity, phytotoxicity rating IPOHE",[15]; Rate 250 g ai/ha,100
same,"Post-emerge Herbicidal Activity, phytotoxicity rating CHEAL",[16]; Rate 63 g ai/ha,80
same,"Post-emerge Herbicidal Activity, phytotoxicity rating CHEAL",[16]; Rate 250 g ai/ha,100
same,"Post-emerge Herbicidal Activity, phytotoxicity rating AMBEL",[17]; Rate 63 g ai/ha,40
same,"Post-emerge Herbicidal Activity, phytotoxicity rating AMBEL",[17]; Rate 250 g ai/ha,80
same,"Post-emerge Herbicidal Activity, phytotoxicity rating CASOB",[18]; Rate 63 g ai/ha,50
same,"Post-emerge Herbicidal Activity, phytotoxicity rating CASOB",[18]; Rate 250 g ai/ha,100
same,"Post-emerge Herbicidal Activity, phytotoxicity rating ABUTH",[19]; Rate 63 g ai/ha,90
same,"Post-emerge Herbicidal Activity, phytotoxicity rating ABUTH",[19]; Rate 250 g ai/ha,100
same,"Post-emerge Herbicidal Activity, phytotoxicity rating SETVI",[20]; Rate 63 g ai/ha,30
same,"Post-emerge Herbicidal Activity, phytotoxicity rating SETVI",[20]; Rate 250 g ai/ha,80
same,"Pre-emerge herbicidal activity, phytotoxicity rating AMARE",[21]; 63 g ai/ha,100
same,"Pre-emerge herbicidal activity, phytotoxicity rating AMARE",[21]; 250 g ai/ha,100
same,"Pre-emerge phytotoxicity rating, crop damage RICE",[22]; 63 g ai/ha,15
same,"Pre-emerge phytotoxicity rating, crop damage RICE",[22]; 250 g ai/ha,50
same,"Pre-emerge phytotoxicity rating, crop damage CORN",[23]; 63 g ai/ha,0
same,"Pre-emerge phytotoxicity rating, crop damage CORN",[23]; 250 g ai/ha,5
"COc1c(Cl)cc(F)c(-n2c(=O)cc(C(F)(F)F)n(C)c2=O)c1CC(Cl)C(=O)OCC(C)C (single isomer, unassigned) [14-14]","Pre-emerge herbicidal activity, phytotoxicity rating ECHCG",[1]; 63 g ai/ha,0
same,"Pre-emerge herbicidal activity, phytotoxicity rating ECHCG",[1]; 250 g ai/ha,10
same,"Pre-emerge herbicidal activity, phytotoxicity rating DIGSA",[2]; 63 g ai/ha,50
same,"Pre-emerge herbicidal activity, phytotoxicity rating DIGSA",[2]; 250 g ai/ha,90
same,"Pre-emerge herbicidal activity, phytotoxicity rating SORHA",[3]; 63 g ai/ha,0
same,"Pre-emerge herbicidal activity, phytotoxicity rating SORHA",[3]; 250 g ai/ha,0
same,"Pre-emerge herbicidal activity, phytotoxicity rating IPOHE",[4]; 63 g ai/ha,0
same,"Pre-emerge herbicidal activity, phytotoxicity rating IPOHE",[4]; 250 g ai/ha,20
same,"Pre-emerge herbicidal activity, phytotoxicity rating CHEAL",[5]; 63 g ai/ha,60
same,"Pre-emerge herbicidal activity, phytotoxicity rating CHEAL",[5]; 250 g ai/ha,100
same,"Pre-emerge herbicidal activity, phytotoxicity rating CASOB",[6]; 63 g ai/ha,0
same,"Pre-emerge herbicidal activity, phytotoxicity rating CASOB",[6]; 250 g ai/ha,0
same,"Pre-emerge herbicidal activity, phytotoxicity rating ABUTH",[7]; 63 g ai/ha,0
same,"Pre-emerge herbicidal activity, phytotoxicity rating ABUTH",[7]; 250 g ai/ha,20
same,"Pre-emerge herbicidal activity, phytotoxicity rating SETVI",[8]; 63 g ai/ha,0
same,"Pre-emerge herbicidal activity, phytotoxicity rating SETVI",[8]; 250 g ai/ha,50
same,Post-emerge phytotoxicity rating RICE (crop damage),[9]; Rate 63 g ai/ha,0
same,Post-emerge phytotoxicity rating RICE (crop damage),[9]; Rate 250 g ai/ha,30
same,Post-emerge phytotoxicity rating CORN (crop damage),[10]; Rate 63 g ai/ha,10
same,Post-emerge phytotoxicity rating CORN (crop damage),[10]; Rate 250 g ai/ha,50
same,"Post-emerge Herbicidal Activity, phytotoxicity rating ECHCG",[11]; Rate 63 g ai/ha,100
same,"Post-emerge Herbicidal Activity, phytotoxicity rating ECHCG",[11]; Rate 250 g ai/ha,100
same,"Post-emerge Herbicidal Activity, phytotoxicity rating DIGSA",[12]; Rate 63 g ai/ha,90
same,"Post-emerge Herbicidal Activity, phytotoxicity rating DIGSA",[12]; Rate 250 g ai/ha,100
same,"Post-emerge Herbicidal Activity, phytotoxicity rating AMARE",[13]; Rate 63 g ai/ha,50
same,"Post-emerge Herbicidal Activity, phytotoxicity rating AMARE",[13]; Rate 250 g ai/ha,100
same,"Post-emerge Herbicidal Activity, phytotoxicity rating SORHA",[14]; Rate 63 g ai/ha,0
same,"Post-emerge Herbicidal Activity, phytotoxicity rating SORHA",[14]; Rate 250 g ai/ha,20
same,"Post-emerge Herbicidal Activity, phytotoxicity rating IPOHE",[15]; Rate 63 g ai/ha,30
same,"Post-emerge Herbicidal Activity, phytotoxicity rating IPOHE",[15]; Rate 250 g ai/ha,50
same,"Post-emerge Herbicidal Activity, phytotoxicity rating CHEAL",[16]; Rate 63 g ai/ha,50
same,"Post-emerge Herbicidal Activity, phytotoxicity rating CHEAL",[16]; Rate 250 g ai/ha,90
same,"Post-emerge Herbicidal Activity, phytotoxicity rating AMBEL",[17]; Rate 63 g ai/ha,70
same,"Post-emerge Herbicidal Activity, phytotoxicity rating AMBEL",[17]; Rate 250 g ai/ha,70
same,"Post-emerge Herbicidal Activity, phytotoxicity rating CASOB",[18]; Rate 63 g ai/ha,0
same,"Post-emerge Herbicidal Activity, phytotoxicity rating CASOB",[18]; Rate 250 g ai/ha,60
same,"Post-emerge Herbicidal Activity, phytotoxicity rating ABUTH",[19]; Rate 63 g ai/ha,50
same,"Post-emerge Herbicidal Activity, phytotoxicity rating ABUTH",[19]; Rate 250 g ai/ha,100
same,"Post-emerge Herbicidal Activity, phytotoxicity rating SETVI",[20]; Rate 63 g ai/ha,50
same,"Post-emerge Herbicidal Activity, phytotoxicity rating SETVI",[20]; Rate 250 g ai/ha,70
same,"Pre-emerge herbicidal activity, phytotoxicity rating AMARE",[21]; 63 g ai/ha,100
same,"Pre-emerge herbicidal activity, phytotoxicity rating AMARE",[21]; 250 g ai/ha,100
same,"Pre-emerge phytotoxicity rating, crop damage RICE",[22]; 63 g ai/ha,0
same,"Pre-emerge phytotoxicity rating, crop damage RICE",[22]; 250 g ai/ha,20
same,"Pre-emerge phytotoxicity rating, crop damage CORN",[23]; 63 g ai/ha,0
same,"Pre-emerge phytotoxicity rating, crop damage CORN",[23]; 250 g ai/ha,0
